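All cell lines were grown in 96-well plates and treated with compound for 48 hours. The concentration for 50% growth inhibition is given as GI50. Definition used: TGI = concentration required for complete inhibition of growth.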
How the values were obtained:
Test in all cases: growth of human tumour cells (NCI), 48 h; in the data active = GI50 below about 0.43 µM; inactive = the rest
SNB-19 CNS = tested on: SNB-19 CNS
HT29 colon = tested on: HT29 colon
SN12C renal = tested on: SN12C renal
HOP-92 NSCLC = tested on: HOP-92 NSCLC
A498 renal = tested on: A498 renal
NCI-H522 lung = tested on: NCI-H522 lung
RXF 393 renal = tested on: RXF 393 renal
UO-31 renal = tested on: UO-31 renal
MDA-MB-435 = tested on: MDA-MB-435
RPMI-8226 leukemia = tested on: RPMI-8226 leukemia
PC-3 prostate = tested on: PC-3 prostate
MDA-MB-231 breast = tested on: MDA-MB-231 breast
CCRF-CEM leukemia = tested on: CCRF-CEM leukemia
SNB-75 CNS = tested on: SNB-75 CNS
NCI-H460 lung = tested on: NCI-H460 lung
SF-268 CNS = tested on: SF-268 CNS
CAKI-1 renal = tested on: CAKI-1 renal
HS 578T breast = tested on: HS 578T breast
SK-OV-3 ovarian = tested on: SK-OV-3 ovarian
SK-MEL-5 melanoma = tested on: SK-MEL-5 melanoma
DU-145 prostate = tested on: DU-145 prostate
M14 melanoma = tested on: M14 melanoma
T-47D breast = tested on: T-47D breast
MDA-N = tested on: MDA-N
MOLT-4 leukemia = tested on: MOLT-4 leukemia
NCI-H226 lung = tested on: NCI-H226 lung
TK-10 renal = tested on: TK-10 renal
SK-MEL-28 melanoma = tested on: SK-MEL-28 melanoma
OVCAR-4 ovarian = tested on: OVCAR-4 ovarian
A549 NSCLC = tested on: A549 NSCLC
SR leukemia = tested on: SR leukemia
IGROV1 ovarian = tested on: IGROV1 ovarian
HCC-2998 colon = tested on: HCC-2998 colon
U251 CNS = tested on: U251 CNS
ACHN renal = tested on: ACHN renal
786-0 renal = tested on: 786-0 renal
EKVX NSCLC = tested on: EKVX NSCLC
HCT-116 colon = tested on: HCT-116 colon
OVCAR-5 ovarian = tested on: OVCAR-5 ovarian
K-562 leukemia = tested on: K-562 leukemia
MCF7 breast = tested on: MCF7 breast
KM12 colon = tested on: KM12 colon
MALME-3M melanoma = tested on: MALME-3M melanoma
SF-539 CNS = tested on: SF-539 CNS
OVCAR-3 ovarian = tested on: OVCAR-3 ovarian
SK-MEL-2 melanoma = tested on: SK-MEL-2 melanoma
NCI/ADR-RES ovarian = tested on: NCI/ADR-RES ovarian
HOP-62 NSCLC = tested on: HOP-62 NSCLC
HCT-15 colon = tested on: HCT-15 colon
HL-60(TB) leukemia = tested on: HL-60(TB) leukemia
COLO 205 colon = tested on: COLO 205 colon
SW-620 colon = tested on: SW-620 colon
UACC-62 melanoma = tested on: UACC-62 melanoma
OVCAR-8 ovarian = tested on: OVCAR-8 ovarian
LOX IMVI melanoma = tested on: LOX IMVI melanoma
NCI-H23 lung = tested on: NCI-H23 lung
SF-295 CNS = tested on: SF-295 CNS
UACC-257 melanoma = tested on: UACC-257 melanoma
BT-549 breast = tested on: BT-549 breast

c1cc2c(cc1NC1=NCCO1)OCO2
> 21100 nM: TGI (CCRF-CEM leukemia)
> 100000 nM: TGI (SNB-19 CNS) | TGI (HT29 colon) | TGI (SN12C renal) | TGI (HOP-92 NSCLC) | TGI (A498 renal) | TGI (NCI-H522 lung) | TGI (RXF 393 renal) | TGI (UO-31 renal) | TGI (MDA-MB-435) | TGI (RPMI-8226 leukemia) | TGI (PC-3 prostate) | TGI (MDA-MB-231 breast) | TGI (SNB-75 CNS) | TGI (NCI-H460 lung) | TGI (SF-268 CNS) | TGI (CAKI-1 renal) | TGI (HS 578T breast) | TGI (SK-OV-3 ovarian) | TGI (SK-MEL-5 melanoma) | TGI (DU-145 prostate) | TGI (M14 melanoma) | TGI (T-47D breast) | TGI (MDA-N) | TGI (MOLT-4 leukemia) | TGI (NCI-H226 lung) | TGI (TK-10 renal) | TGI (SK-MEL-28 melanoma) | TGI (OVCAR-4 ovarian) | TGI (A549 NSCLC) | TGI (SR leukemia) | TGI (IGROV1 ovarian) | TGI (HCC-2998 colon) | TGI (U251 CNS) | TGI (ACHN renal) | TGI (786-0 renal) | TGI (EKVX NSCLC) | TGI (HCT-116 colon) | TGI (OVCAR-5 ovarian) | TGI (K-562 leukemia) | TGI (MCF7 breast) | TGI (KM12 colon) | TGI (MALME-3M melanoma) | TGI (SF-539 CNS) | TGI (OVCAR-3 ovarian) | TGI (SK-MEL-2 melanoma) | TGI (NCI/ADR-RES ovarian) | TGI (HOP-62 NSCLC) | TGI (HCT-15 colon) | TGI (HL-60(TB) leukemia) | TGI (COLO 205 colon) | TGI (SW-620 colon) | TGI (UACC-62 melanoma) | TGI (OVCAR-8 ovarian) | TGI (LOX IMVI melanoma) | TGI (NCI-H23 lung) | TGI (SF-295 CNS)

Cc1ccc(S(=O)(=O)OC2C(O)C(O)OC2C(c2cc(O)c3c(c2O)C(=O)c2ccccc2C3=O)c2cc(O)c3c(c2O)C(=O)c2ccccc2C3=O)cc1 (stereo unspecified)
> 10000 nM: TGI (HT29 colon) | TGI (SN12C renal) | TGI (RXF 393 renal) | TGI (MDA-MB-231 breast) | TGI (CCRF-CEM leukemia) | TGI (SNB-75 CNS) | TGI (SK-OV-3 ovarian) | TGI (SK-MEL-5 melanoma) | TGI (DU-145 prostate) | TGI (T-47D breast) | TGI (MDA-N) | TGI (MOLT-4 leukemia) | TGI (TK-10 renal) | TGI (SK-MEL-28 melanoma) | TGI (A549 NSCLC) | TGI (SR leukemia) | TGI (IGROV1 ovarian) | TGI (HCC-2998 colon) | TGI (786-0 renal) | TGI (EKVX NSCLC) | TGI (K-562 leukemia) | TGI (MCF7 breast) | TGI (KM12 colon) | TGI (HOP-62 NSCLC) | TGI (HCT-15 colon) | TGI (SW-620 colon) | TGI (UACC-62 melanoma) | TGI (OVCAR-8 ovarian) | TGI (UACC-257 melanoma)
9330 nM: TGI (SF-295 CNS)
8900 nM: TGI (CAKI-1 renal)
8670 nM: TGI (RPMI-8226 leukemia)
6980 nM: TGI (MALME-3M melanoma)
8930 nM: TGI (NCI-H23 lung)
9430 nM: TGI (PC-3 prostate)
8710 nM: TGI (M14 melanoma)
4520 nM: TGI (HL-60(TB) leukemia)
4850 nM: TGI (COLO 205 colon)

Cc1ncc(C(=O)Nc2ccc(CN3CCN(C)CC3)c(C(F)(F)F)c2)cc1C#Cc1cnc2cccnn12
2400 nM: TGI (NCI-H522 lung)
1480 nM: TGI (MDA-MB-435)
5840 nM: TGI (OVCAR-5 ovarian)
3160 nM: TGI (786-0 renal)
1310 nM: TGI (COLO 205 colon)
1180 nM: TGI (SF-539 CNS)
2590 nM: TGI (SF-268 CNS) | TGI (SW-620 colon)
672 nM: TGI (LOX IMVI melanoma)
743 nM: TGI (HCT-116 colon)
663 nM: TGI (MCF7 breast)
2640 nM: TGI (KM12 colon)
2170 nM: TGI (DU-145 prostate)
1980 nM: TGI (OVCAR-4 ovarian)
1140 nM: TGI (RXF 393 renal)
3300 nM: TGI (HS 578T breast)
4790 nM: TGI (PC-3 prostate)
3940 nM: TGI (SN12C renal)
50000 nM: TGI (SR leukemia) | TGI (K-562 leukemia)
1840 nM: TGI (SK-MEL-28 melanoma)
2900 nM: TGI (EKVX NSCLC)
7190 nM: TGI (SK-OV-3 ovarian)
1990 nM: TGI (SNB-75 CNS)
1260 nM: TGI (SK-MEL-5 melanoma)
1170 nM: TGI (HL-60(TB) leukemia)
4280 nM: TGI (HCC-2998 colon)
4150 nM: TGI (MDA-MB-231 breast)
1320 nM: TGI (UACC-62 melanoma)
1010 nM: TGI (NCI-H23 lung)
14500 nM: TGI (HT29 colon)
355 nM: TGI (MALME-3M melanoma)
732 nM: TGI (M14 melanoma)
1370 nM: TGI (NCI-H226 lung)
12300 nM: TGI (T-47D breast)
1290 nM: TGI (RPMI-8226 leukemia)
4140 nM: TGI (HOP-62 NSCLC)
4710 nM: TGI (SF-295 CNS)
5810 nM: TGI (TK-10 renal)
inactive: GI50 (SNB-19 CNS) 1220 nM | GI50 (A498 renal) 703 nM | GI50 (NCI-H522 lung) 580 nM | GI50 (RXF 393 renal) 438 nM | GI50 (PC-3 prostate) 651 nM | GI50 (SNB-75 CNS) 1040 nM | GI50 (NCI-H460 lung) 501 nM | GI50 (SF-268 CNS) 622 nM | GI50 (HS 578T breast) 625 nM | GI50 (SK-OV-3 ovarian) 1630 nM | GI50 (SK-MEL-5 melanoma) 595 nM | GI50 (T-47D breast) 1910 nM | GI50 (TK-10 renal) 797 nM | GI50 (BT-549 breast) 1230 nM | GI50 (HCC-2998 colon) 446 nM | GI50 (U251 CNS) 727 nM | GI50 (786-0 renal) 1050 nM | GI50 (EKVX NSCLC) 683 nM | GI50 (SF-539 CNS) 485 nM | GI50 (OVCAR-3 ovarian) 643 nM | GI50 (NCI/ADR-RES ovarian) 997 nM | GI50 (HCT-15 colon) 593 nM | GI50 (UACC-257 melanoma) 531 nM | GI50 (SF-295 CNS) 1010 nM
2520 nM: TGI (OVCAR-3 ovarian)
4430 nM: TGI (UACC-257 melanoma)
20700 nM: TGI (CCRF-CEM leukemia)
active: GI50 (HT29 colon) 199 nM | GI50 (SN12C renal) 288 nM | GI50 (HOP-92 NSCLC) 253 nM | GI50 (UO-31 renal) 242 nM | GI50 (MDA-MB-435) 243 nM | GI50 (RPMI-8226 leukemia) 145 nM | GI50 (MDA-MB-231 breast) 205 nM | GI50 (CCRF-CEM leukemia) 199 nM | GI50 (CAKI-1 renal) 365 nM | GI50 (DU-145 prostate) 413 nM | GI50 (M14 melanoma) 163 nM | GI50 (MOLT-4 leukemia) 156 nM | GI50 (NCI-H226 lung) 204 nM | GI50 (SK-MEL-28 melanoma) 212 nM | GI50 (OVCAR-4 ovarian) 205 nM | GI50 (A549 NSCLC) 320 nM | GI50 (SR leukemia) 293 nM | GI50 (IGROV1 ovarian) 268 nM | GI50 (ACHN renal) 287 nM | GI50 (HCT-116 colon) 178 nM | GI50 (OVCAR-5 ovarian) 335 nM | GI50 (K-562 leukemia) 5 nM | GI50 (MCF7 breast) 136 nM | GI50 (KM12 colon) 5 nM | GI50 (MALME-3M melanoma) 89.5 nM | GI50 (SK-MEL-2 melanoma) 335 nM | GI50 (HOP-62 NSCLC) 423 nM | GI50 (HL-60(TB) leukemia) 195 nM | GI50 (COLO 205 colon) 200 nM | GI50 (SW-620 colon) 239 nM | GI50 (UACC-62 melanoma) 280 nM | GI50 (OVCAR-8 ovarian) 339 nM | GI50 (LOX IMVI melanoma) 183 nM | GI50 (NCI-H23 lung) 221 nM
5980 nM: TGI (OVCAR-8 ovarian)
4450 nM: TGI (IGROV1 ovarian) | TGI (HCT-15 colon)
1530 nM: TGI (NCI-H460 lung) | TGI (A549 NSCLC) | TGI (ACHN renal)
5630 nM: TGI (SNB-19 CNS)
2820 nM: TGI (CAKI-1 renal)
1540 nM: TGI (SK-MEL-2 melanoma)
1910 nM: TGI (UO-31 renal)
2870 nM: TGI (HOP-92 NSCLC)
3720 nM: TGI (BT-549 breast)
4090 nM: TGI (NCI/ADR-RES ovarian)
2600 nM: TGI (U251 CNS)
1470 nM: TGI (A498 renal)
5320 nM: TGI (MOLT-4 leukemia)
